One compound from patent publication US20090131430A1, “PYRIDO'2,3-DIPYRIMIDINES AS ANTI-INFLAMMATORY AGENTS” (priority 2004, published 2009) can be followed below.

Broadly, the melting point is the temperature, or range, at which the solid turns liquid.

`Cn1c(=O)c(-c2ccccc2Cl)cc2cnc(NC3CC4CCCC(C3)N4Cc3ccccc3)nc21` (stereo not shown): the melting point fell in the range of 76.9 to 82 °C.
